Data taken from ChEMBL document CHEMBL1158312, “Cytotoxic triterpenes from a marine sponge, Stelletta sp” (J Nat Prod, 1996).
Activity calls are given as the source filed them. The rule behind the calls is not given here.

Assays:
[1] = molecular target: T1, Retinoic acid receptor RXR-alpha (Homo sapiens) (UniProt P19793); assay: Binding affinity to human RXRalpha assessed as induction of receptor conformational change at 1 uM
T1 sequence (whole entry): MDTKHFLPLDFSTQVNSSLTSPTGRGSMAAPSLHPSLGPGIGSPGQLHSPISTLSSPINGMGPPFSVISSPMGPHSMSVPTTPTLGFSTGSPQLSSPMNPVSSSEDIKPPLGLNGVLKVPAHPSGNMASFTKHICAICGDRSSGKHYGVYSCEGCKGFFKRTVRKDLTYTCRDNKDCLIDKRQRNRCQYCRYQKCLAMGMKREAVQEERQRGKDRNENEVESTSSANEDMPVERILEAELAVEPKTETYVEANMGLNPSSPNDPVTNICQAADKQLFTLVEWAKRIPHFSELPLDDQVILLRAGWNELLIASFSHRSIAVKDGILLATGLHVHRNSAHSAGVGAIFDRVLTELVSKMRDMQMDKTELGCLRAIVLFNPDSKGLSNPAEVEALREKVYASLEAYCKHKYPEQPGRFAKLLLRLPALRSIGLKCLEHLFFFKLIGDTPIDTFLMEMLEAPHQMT

[2] = molecular target: T2, Retinoic acid receptor RXR-alpha (Mus musculus) (UniProt P28700); assay: Binding affinity to mouse RXRalpha assessed as induction of receptor conformational change at 1 uM
T2 sequence (whole entry): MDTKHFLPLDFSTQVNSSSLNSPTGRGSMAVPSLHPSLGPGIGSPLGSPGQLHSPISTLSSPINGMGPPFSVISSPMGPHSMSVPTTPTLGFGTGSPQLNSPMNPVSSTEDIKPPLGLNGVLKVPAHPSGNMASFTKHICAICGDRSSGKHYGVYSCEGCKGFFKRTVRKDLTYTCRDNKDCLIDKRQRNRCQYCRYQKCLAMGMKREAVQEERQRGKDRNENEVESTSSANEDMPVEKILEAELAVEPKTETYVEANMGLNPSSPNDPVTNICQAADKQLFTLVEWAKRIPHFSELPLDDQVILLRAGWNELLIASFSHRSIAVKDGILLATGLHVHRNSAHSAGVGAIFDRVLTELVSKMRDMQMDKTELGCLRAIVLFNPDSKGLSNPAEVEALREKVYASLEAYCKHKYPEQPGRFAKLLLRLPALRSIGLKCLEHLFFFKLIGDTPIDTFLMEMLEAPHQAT

[3] = molecular target: T2, Retinoic acid receptor RXR-alpha (Mus musculus); assay: Antagonist activity at mouse RXRalpha assessed as inhibition of 9-cis-retinoic acid-induced response by differential proteolytic sensitivity assay; format: functional

Activity [1] | Activity [2] | Activity [3] | SMILES
inactive | inactive | inactive | CC(/C=C/C=C(\C)c1ccc(C)c(=O)o1)=C1/C(=O)C[C@H]2[C@@]3(C)CCC(=O)C(C)(C)[C@@H]3CC[C@]12C
inactive | inactive | inactive | C/C(=C/C=C/C(C)=C/C=C/C(C)=C1\C(=O)C[C@H]2[C@@]3(C)CCC(=O)C(C)(C)[C@@H]3CC[C@]12C)C(=O)O
